Measured values taken from PubChem BioAssay (NCI).
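How tested: cells in 96-well plates exposed to compound for 48 hours at five concentrations. Definition used: TGI = concentration required for complete inhibition of growth.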

What was measured:
Experiment in all cases: NCI tumour cell line growth inhibition, 48 h
COLO 205 colon = system: COLO 205 colon
HCT-116 colon = system: HCT-116 colon
MDA-N = system: MDA-N
NCI-H460 lung = system: NCI-H460 lung
OVCAR-4 ovarian = system: OVCAR-4 ovarian
SF-539 CNS = system: SF-539 CNS
SR leukemia = system: SR leukemia
SW-620 colon = system: SW-620 colon
T-47D breast = system: T-47D breast
UACC-62 melanoma = system: UACC-62 melanoma
SK-MEL-28 melanoma = system: SK-MEL-28 melanoma

`CCCCc1ccc(Nc2nc(Cl)c3ncn(COCCOC(C)=O)c3n2)cc1` was tested, and the TGI (COLO 205 colon) was 48.5 µM, the TGI (HCT-116 colon) was 31.7 µM and the TGI (MDA-N) was 37 µM. It also gave a TGI (NCI-H460 lung) of 32.9 µM, a TGI (OVCAR-4 ovarian) of over 100 µM and a TGI (SF-539 CNS) of 63.3 µM. It also gave a TGI (SR leukemia) of 53.8 µM, a TGI (SW-620 colon) of 43.8 µM and a TGI (T-47D breast) of 65.9 µM. For the same compound, the TGI (UACC-62 melanoma) was 31.9 µM.

`O=c1ccn(CC2(CO)CCCC2)c(=O)[nH]1` gave a TGI (COLO 205 colon) of over 100 µM, a TGI (HCT-116 colon) of over 100 µM and a TGI (MDA-N) of over 100 µM. The TGI (NCI-H460 lung) was over 100 µM, the TGI (OVCAR-4 ovarian) was over 100 µM and the TGI (SF-539 CNS) was over 100 µM. For the same compound, the TGI (SK-MEL-28 melanoma) was over 100 µM, the TGI (SR leukemia) was over 100 µM and the TGI (SW-620 colon) was over 100 µM. For the same compound, the TGI (T-47D breast) was over 100 µM and the TGI (UACC-62 melanoma) was over 100 µM.

For `CCCCCCCCCCCCCCCCCCNc1ccn(C2OC(COP(=O)(O)OCC3OC(n4cc(C)c(=O)[nH]c4=O)CC3F)C(O)C2O)c(=O)n1` (stereo unspecified), the TGI (COLO 205 colon) was 9.53 µM, the TGI (HCT-116 colon) was 42.8 µM and the TGI (MDA-N) was 38.9 µM. It also gave a TGI (NCI-H460 lung) of 43.9 µM, a TGI (OVCAR-4 ovarian) of 42.5 µM and a TGI (SF-539 CNS) of 19.9 µM. It also gave a TGI (SK-MEL-28 melanoma) of 17.6 µM, a TGI (SR leukemia) of 5.14 µM and a TGI (SW-620 colon) of 12.3 µM. For the same compound, the TGI (T-47D breast) was 44.2 µM and the TGI (UACC-62 melanoma) was 12.6 µM.

Work on `CCOC(=O)CCC(NC(=O)Cc1ccc(Nc2nc3ccccc3nc2-c2cccs2)cc1)C(=O)OCC` (stereo unspecified) yielded a TGI (COLO 205 colon) of over 100 µM, a TGI (HCT-116 colon) of over 100 µM and a TGI (MDA-N) of over 100 µM. It also gave a TGI (NCI-H460 lung) of over 100 µM, a TGI (OVCAR-4 ovarian) of over 100 µM and a TGI (SF-539 CNS) of over 100 µM. The TGI (SK-MEL-28 melanoma) was over 100 µM, the TGI (SR leukemia) was over 100 µM and the TGI (SW-620 colon) was over 100 µM. It also gave a TGI (T-47D breast) of 66.9 µM and a TGI (UACC-62 melanoma) of over 100 µM.

`CN(C)CCCC1c2ccccc2Oc2ccc(C(F)(F)F)cc21` (stereo unspecified) showed a TGI (COLO 205 colon) of 17.7 µM, a TGI (HCT-116 colon) of 25.6 µM and a TGI (MDA-N) of 15.2 µM. It also gave a TGI (NCI-H460 lung) of 31.8 µM, a TGI (OVCAR-4 ovarian) of 28.3 µM and a TGI (SF-539 CNS) of 29.5 µM. It also gave a TGI (SK-MEL-28 melanoma) of 15.7 µM, a TGI (SR leukemia) of 24.5 µM and a TGI (SW-620 colon) of 33.7 µM. It also gave a TGI (T-47D breast) of 30.5 µM and a TGI (UACC-62 melanoma) of 23.4 µM.

`CC1=NN(c2nc(N)nc(CBr)n2)C(C)(C)C1` gave a TGI (COLO 205 colon) of 9.61 µM, a TGI (HCT-116 colon) of 17.4 µM and a TGI (MDA-N) of 25.5 µM. For the same compound, the TGI (NCI-H460 lung) was 23.8 µM, the TGI (OVCAR-4 ovarian) was 20.6 µM and the TGI (SF-539 CNS) was 5.25 µM. It also gave a TGI (SK-MEL-28 melanoma) of 27.2 µM, a TGI (SR leukemia) of 17.1 µM and a TGI (SW-620 colon) of 12.7 µM. The TGI (T-47D breast) was 18 µM and the TGI (UACC-62 melanoma) was 21.7 µM.

In the case of `Clc1c(Cl)c(Cl)c2c(nnn2C2CCCO2)c1Cl` (stereo unspecified), the TGI (COLO 205 colon) is reported as 47.4 µM, the TGI (HCT-116 colon) is reported as over 100 µM and the TGI (MDA-N) is reported as 74.3 µM. It also gave a TGI (NCI-H460 lung) of 41.8 µM, a TGI (OVCAR-4 ovarian) of 54.5 µM and a TGI (SF-539 CNS) of over 100 µM. For the same compound, the TGI (SR leukemia) was 91.4 µM, the TGI (T-47D breast) was over 100 µM and the TGI (UACC-62 melanoma) was over 100 µM.

`NC(=O)C(=O)c1ncn(Cc2ccccc2)c1N` gave a TGI (COLO 205 colon) of over 100 µM, a TGI (HCT-116 colon) of over 100 µM and a TGI (MDA-N) of over 100 µM. It also gave a TGI (NCI-H460 lung) of over 100 µM, a TGI (OVCAR-4 ovarian) of over 100 µM and a TGI (SF-539 CNS) of over 100 µM. The TGI (SK-MEL-28 melanoma) was over 100 µM, the TGI (SR leukemia) was over 100 µM and the TGI (SW-620 colon) was over 100 µM. It also gave a TGI (T-47D breast) of over 100 µM and a TGI (UACC-62 melanoma) of over 100 µM.

`CC(=O)Nc1ccc(NS(=O)(=O)c2ccc3nc(C)n(NS(=O)(=O)c4ccc(NC(C)=O)cc4)c(=O)c3c2)cc1` gave a TGI (COLO 205 colon) of over 100 µM, a TGI (HCT-116 colon) of over 100 µM and a TGI (MDA-N) of over 100 µM. For the same compound, the TGI (NCI-H460 lung) was over 100 µM, the TGI (OVCAR-4 ovarian) was over 100 µM and the TGI (SF-539 CNS) was over 100 µM. For the same compound, the TGI (SK-MEL-28 melanoma) was over 100 µM, the TGI (SR leukemia) was over 100 µM and the TGI (SW-620 colon) was over 100 µM. The TGI (T-47D breast) was over 100 µM and the TGI (UACC-62 melanoma) was over 100 µM.
